Calls of active or inactive are those of the source. The rule behind the calls is not given here.
Legend:
[1] = test system: CCRF S-180; experiment: Antitumor activity against mouse S180 ascites cells implanted in Swiss albino mouse assessed as tumor growth inhibition at 10 mg/kg, ip measured on day 12; type: functional; details: CCRF S-180, ip, 288 h, route intraperitoneal, read-out: TGI
[2] = Cytotoxicity against human PC3 cells after 48 hrs by MTT assay; type: functional, cell-based; details: PC-3, 48 h
[3] = Effect on total Akt protein levels in human PC3 cells at 0.1 to 0.3 uM after 24 hrs by Western blotting method; type: ADME, cell-based; details: pc-3, 24 h
[4] = test system: PC-3; experiment: Induction of autophagy in human PC3 cells assessed as increase in punctate EGFP-LC3 pattern in autophagosomes at 100 nM to 300 nM after 24 hrs by fluorescence microscopy; type: functional, cell-based
[5] = test system: PC-3; experiment: Induction of autophagy in human PC3 cells assessed as increase in conversion of LC3-I to LC3-II at 0.1 to 0.3 uM after 24 hrs by Western blotting method; type: functional, cell-based
[6] = test system: Mus musculus; experiment: Toxicity in mouse S180 solid tumor cells implanted Swiss albino mouse assessed as mouse mortality at 10 mg/kg, ip measured on day 13; type: organism-based; parameters: dose 10 mg/kg, route intraperitoneal; details: in vivo
[7] = test system: PC-3; experiment: Induction of autophagy in human PC3 cells over-expressing Bcl-2 at 300 nM pre-treated with 5 mM autophagy inhibitor 3-MA for 1 hr before compound exposure for 24 hrs by acridine orange staining based fluorescence microscopy; type: functional, cell-based
[8] = test system: PC-3; experiment: Induction of apoptosis in human PC3 cells at 300 nM pre-treated with 5 mM autophagy inhibitor 3-MA for 1 hr before compound exposure for 24 hrs by DAPI staining method; type: functional, cell-based
[9] = test system: PC-3; experiment: Induction of apoptosis in human PC3 cells assessed as membrane blebbing at 100 to 300 nM after 24 hrs by DAPI staining assay; type: functional, cell-based
[10] = test system: Mus musculus; experiment: Toxicity in mouse S180 ascites cells implanted Swiss albino mouse assessed as mouse mortality at 10 mg/kg, ip measured on day 13; type: organism-based; parameters: dose 10 mg/kg, route intraperitoneal; details: in vivo
[11] = test system: Mus musculus; experiment: Toxicity in mouse S180 ascites cells implanted Swiss albino mouse assessed as mouse mortality at 5 mg/kg, ip measured on day 13; type: organism-based; parameters: dose 5 mg/kg, route intraperitoneal; details: in vivo
[12] = test system: CCRF S-180; experiment: Antitumor activity against mouse S180 solid tumor cells implanted in Swiss albino mouse assessed as tumor growth inhibition at 5 mg/kg, ip measured on day 13; type: functional; details: CCRF S-180, ip, 312 h, route intraperitoneal, read-out: TGI
[13] = test system: PC-3; experiment: Induction of apoptosis in human PC3 cells assessed as caspase-3 cleavage at 0.1 to 0.3 uM after 24 hrs by Western blotting method; type: functional, cell-based
[14] = test system: PC-3; experiment: Induction of apoptosis in human PC3 cells over-expressing Bcl-2 at 300 nM pre-treated with 20 uM apoptosis inhibitor z-VAD-fmk for 1 hr before compound exposure for 24 hrs by DAPI staining method; type: functional, cell-based
[15] = test system: PC-3; experiment: Induction of autophagy in human PC3 cells over-expressing DS-Red-Beclin-1 at 300 nM pre-treated with 20 uM apoptosis inhibitor z-VAD-fmk for 1 hr before compound exposure for 24 hrs by acridine orange staining based fluorescence microscopy; type: functional, cell-based
[16] = test system: PC-3; experiment: Inhibition of Akt in human PC3 cells assessed as reduction in mTOR S2448 phosphorylation at 0.1 to 0.3 uM after 24 hrs by Western blotting method; type: cell-based
[17] = test system: PC-3; experiment: Induction of apoptosis in human PC3 cells at 300 nM pre-treated with 20 uM apoptosis inhibitor z-VAD-fmk for 1 hr before compound exposure for 24 hrs by DAPI staining method; type: functional, cell-based
[18] = test system: PC-3; experiment: Induction of autophagy in human PC3 cells assessed as reduction in SQSTM1/P62 protein levels at 0.1 to 0.3 uM after 24 hrs by Western blotting method; type: functional, cell-based
[19] = test system: A549; experiment: Cytotoxicity against human A549 cells after 48 hrs by MTT assay; type: functional, cell-based; details: A549, 48 h
[20] = test system: PC-3; experiment: Induction of autophagy in human PC3 cells assessed as increase LC3 intracellular localization at 100 nM to 300 nM after 24 hrs by immunocytochemistry; type: functional, cell-based
[21] = test system: PC-3; experiment: Induction of autophagy in human PC3 cells assessed as acidic vesicular organelles formation at 100 to 300 nM after 24 hrs by acridine orange staining based fluorescence microscopy; type: functional, cell-based
[22] = test system: HeLa; experiment: Cytotoxicity against human HeLa cells after 48 hrs by MTT assay; type: functional, cell-based
[23] = test system: Mus musculus; experiment: Toxicity in mouse S180 solid tumor cells implanted Swiss albino mouse assessed as mouse mortality at 5 mg/kg, ip measured on day 13; type: organism-based; parameters: dose 5 mg/kg, route intraperitoneal; details: in vivo
[24] = Effect on total mTOR protein levels in human PC3 cells at 0.1 to 0.3 uM after 24 hrs by Western blotting method; type: ADME, cell-based; details: pc-3, 24 h
[25] = test system: PC-3; experiment: Induction of autophagy in human PC3 cells at 300 nM pre-treated with 20 uM apoptosis inhibitor z-VAD-fmk for 1 hr before compound exposure for 24 hrs by acridine orange staining based fluorescence microscopy; type: functional, cell-based
[26] = test system: PC-3; experiment: Increase in PARP-cleavage in human PC3 cells at 0.3 uM in presence of Beclin-1 siRNA after 24 hrs by immunoblotting method; type: functional, cell-based
[27] = test system: PC-3; experiment: Induction of autophagy in human PC3 cells assessed as autophagosomes formation at 100 to 300 nM after 24 hrs by acridine orange staining based fluorescence microscopy; type: functional, cell-based
[28] = test system: PC-3; experiment: Induction of apoptosis in human PC3 cells assessed as nuclear condensation at 100 to 300 nM after 24 hrs by DAPI staining assay; type: functional, cell-based
[29] = Reduction in Bcl-2 protein expression in human PC3 cells at 0.1 to 0.3 uM after 24 hrs by Western blotting method; type: functional, cell-based; details: PC-3
[30] = test system: PC-3; experiment: Increase in autophagy in human PC3 cells at 300 nM pre-treated with 20 uM apoptosis inhibitor z-VAD-fmk for 1 hr before compound exposure for 24 hrs by acridine orange staining based fluorescence microscopy; type: functional, cell-based
[31] = test system: PC-3; experiment: Induction of autophagy in human PC3 cells at 300 nM pre-treated with 5 mM autophagy inhibitor 3-MA for 1 hr before compound exposure for 24 hrs by acridine orange staining based fluorescence microscopy; type: functional, cell-based
[32] = test system: PC-3; experiment: Induction of autophagy in human PC3 cells at 100 to 300 nM after 24 hrs by acridine orange staining based fluorescence microscopy; type: functional
[33] = test system: PC-3; experiment: Induction of autophagy in human PC3 cells assessed as LC3 protein accumulation in autophagosomes after 24 hrs by fluorescence microscopy; type: functional, cell-based
[34] = test system: PC-3; experiment: Induction of apoptosis in human PC3 cells assessed as increase in Annexin-V positive cells at 0.1 to 0.3 uM after 24 hrs; type: functional, cell-based
[35] = test system: PC-3; experiment: Induction of apoptosis in human PC3 cells assessed as caspase-3 cleavage at 300 nM after 24 hrs by Western blotting method; type: functional, cell-based
[36] = test system: CCRF S-180; experiment: Antitumor activity against mouse S180 solid tumor cells implanted in Swiss albino mouse assessed as tumor growth inhibition at 10 mg/kg, ip measured on day 13; type: functional; details: CCRF S-180, ip, 312 h, route intraperitoneal, read-out: TGI
[37] = test system: PC-3; experiment: Induction of autophagy in human PC3 cells assessed as increase in Beclin-1 protein levels at 0.1 to 0.3 uM after 24 hrs by Western blotting method; type: functional, cell-based
[38] = test system: PC-3; experiment: Inhibition of Akt S473 phosphorylation in human PC3 cells at 0.1 to 0.3 uM after 24 hrs by Western blotting method; type: cell-based
[39] = test system: CCRF S-180; experiment: Antitumor activity against mouse S180 ascites cells implanted in Swiss albino mouse assessed as tumor growth inhibition at 5 mg/kg, ip measured on day 12; type: functional; details: CCRF S-180, ip, 288 h, route intraperitoneal, read-out: TGI
[40] = test system: PC-3; experiment: Induction of autophagy in human PC3 cells over-expressing Bcl-2 at 300 nM pre-treated with 20 uM apoptosis inhibitor z-VAD-fmk for 1 hr before compound exposure for 24 hrs by acridine orange staining based fluorescence microscopy; type: functional, cell-based
[41] = test system: PC-3; experiment: Induction of autophagy in human PC3 cells at 100 to 300 nM after 24 hrs by MDC staining based fluorescence microscopy; type: functional, cell-based
[42] = test system: Mus musculus; experiment: Toxicity in mouse S180 ascites cells implanted Swiss albino mouse assessed as mouse mortality at 22 mg/kg, ip measured on day 13; type: organism-based; parameters: dose 22 mg/kg, route intraperitoneal; details: in vivo
[43] = test system: CCRF S-180; experiment: Antitumor activity against mouse S180 solid tumor cells implanted in Swiss albino mouse assessed as tumor growth inhibition at 22 mg/kg, ip measured on day 13; type: functional; details: CCRF S-180, ip, 312 h, route intraperitoneal, read-out: TGI
[44] = test system: CCRF S-180; experiment: Antitumor activity against mouse S180 ascites cells implanted in Swiss albino mouse assessed as tumor growth inhibition at 22 mg/kg, ip measured on day 12; type: functional; details: CCRF S-180, ip, 288 h, route intraperitoneal, read-out: TGI
[45] = test system: Mus musculus; experiment: Toxicity in mouse S180 solid tumor cells implanted Swiss albino mouse assessed as mouse mortality at 22 mg/kg, ip measured on day 13; type: organism-based; parameters: dose 22 mg/kg, route intraperitoneal; details: in vivo

CC1(C)CCC[C@]2(C)[C@@H](CC[C@@](C)(O)/C=C/c3ccc(F)cc3)[C@](C)(O)CC[C@@H]12
inhibition in vivo at 10 mg/kg [1]: 74.9%
IC50 [2]: 0.082 µM
Activity [3]: Non-toxic
Activity [4]: Active
Activity [5]: Dose-dependent effect
Activity [6]: Non-toxic
Activity [7]: Active
Activity [8]: inactive
Activity [9]: Active
Activity [10]: Non-toxic
Activity [11]: Non-toxic
inhibition in vivo at 5 mg/kg [12]: 32.5%
Activity [13]: Active
Activity [14]: inactive
Activity [15]: Active
inhibition [16]: Active
Activity [17]: inactive
Activity [18]: Dose-dependent effect
IC50 [19]: 3.1 µM
Activity [20]: Active
Activity [21]: Active
IC50 [22]: 3.46 µM
Activity [23]: Non-toxic
Activity [24]: Non-toxic
Activity [25]: inactive
Activity [26]: inactive
Activity [27]: Active
Activity [28]: Active
Activity [29]: Dose-dependent effect
Activity [30]: Active
Activity [31]: inactive
Activity [32]: Active
Activity [33]: Active
Activity [34]: Active
Activity [35]: Active
inhibition in vivo at 10 mg/kg [36]: 39.8%
Activity [37]: Dose-dependent effect
inhibition [38]: Active
inhibition in vivo at 5 mg/kg [39]: 64.7%
Activity [40]: inactive
Activity [41]: Active

O=c1[nH]cc(F)c(=O)[nH]1 [FLUOROURACIL]
Activity [42]: Non-toxic
inhibition in vivo at 22 mg/kg [43]: 52.5%
inhibition in vivo at 22 mg/kg [44]: 96.9%
Activity [45]: Non-toxic

Source: ChEMBL document CHEMBL3421624, “Design and Synthesis of Antitumor Heck-Coupled Sclareol Analogues: Modulation of BH3 Family Members by SS-12 in Autophagy and Apoptotic Cell Death” (J Med Chem, 2015)
